Assay results as given in PubChem BioAssay (NCI).
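Five compound concentrations were applied to cells in 96-well plates for 48 hours; endpoints were derived by simple linear interpolation of the resulting dose-response curve. GI50 = concentration required for 50% inhibition of growth. TGI: concentration producing complete growth inhibition.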

Tests used:
Experiment in all cases: inhibition of tumour cell growth, NCI panel, 48 h
[1] = system: HCT-15 colon
[2] = system: RXF 393 renal
[3] = system: NCI-H460 lung
[4] = system: MOLT-4 leukemia
[5] = system: OVCAR-4 ovarian
[6] = system: CCRF-CEM leukemia
[7] = system: SF-539 CNS
[8] = system: PC-3 prostate
[9] = system: UO-31 renal
[10] = system: SF-268 CNS
[11] = system: KM12 colon
[12] = system: OVCAR-5 ovarian
[13] = system: EKVX NSCLC
[14] = system: NCI-H23 lung
[15] = system: DU-145 prostate
[16] = system: U251 CNS
[17] = system: NCI-H226 lung
[18] = system: SF-295 CNS
[19] = system: SK-MEL-5 melanoma
[20] = system: UACC-257 melanoma
[21] = system: RPMI-8226 leukemia
[22] = system: HS 578T breast
[23] = system: LOX IMVI melanoma
[24] = system: TK-10 renal
[25] = system: OVCAR-3 ovarian
[26] = system: HOP-62 NSCLC
[27] = system: SK-MEL-2 melanoma
[28] = system: SNB-75 CNS
[29] = system: 786-0 renal
[30] = system: MDA-MB-435
[31] = system: SR leukemia
[32] = system: NCI/ADR-RES ovarian
[33] = system: SNB-19 CNS
[34] = system: A549 NSCLC
[35] = system: OVCAR-8 ovarian
[36] = system: CAKI-1 renal
[37] = system: K-562 leukemia
[38] = system: BT-549 breast
[39] = system: M14 melanoma
[40] = system: COLO 205 colon
[41] = system: HOP-92 NSCLC
[42] = system: SW-620 colon
[43] = system: SK-MEL-28 melanoma
[44] = system: A498 renal
[45] = system: SN12C renal
[46] = system: T-47D breast
[47] = system: HCT-116 colon
[48] = system: HCC-2998 colon
[49] = system: IGROV1 ovarian
[50] = system: HT29 colon
[51] = system: SK-OV-3 ovarian
[52] = system: ACHN renal
[53] = system: MDA-MB-231 breast
[54] = system: MCF7 breast
[55] = system: MALME-3M melanoma
[56] = system: HL-60(TB) leukemia
[57] = system: NCI-H522 lung
[58] = system: UACC-62 melanoma

Molecule `C(=C\c1ccc(OCC2CO2)cc1)/C1=NCOC1` (stereo not given) has a GI50 [1] of 5.89 µM, a TGI [1] of 21.3 µM and a GI50 [2] of 2.05 µM. It also gave a TGI [2] of 6.34 µM, a GI50 [3] of 19.9 µM and a TGI [3] of 57.7 µM. It also gave a GI50 [4] of 3.24 µM, a TGI [4] of 16.8 µM and a GI50 [5] of 15.4 µM. The TGI [5] was 31.9 µM, the GI50 [6] was 2.89 µM and the TGI [6] was 13.3 µM. For the same molecule, the GI50 [7] was 9.48 µM, the TGI [7] was 25.8 µM and the GI50 [8] was 13.2 µM. It also gave a TGI [8] of 28 µM, a GI50 [9] of 3.64 µM and a TGI [9] of 12.8 µM. It also gave a GI50 [10] of 7.3 µM, a TGI [10] of 33.8 µM and a GI50 [11] of 16.5 µM. It also gave a TGI [11] of 40.8 µM, a GI50 [12] of 16.4 µM and a TGI [12] of 37.1 µM. It also gave a GI50 [13] of 19.1 µM, a TGI [13] of 58.4 µM and a GI50 [14] of 10.7 µM. It also gave a TGI [14] of 40.2 µM, a GI50 [15] of 9.82 µM and a TGI [15] of 29.2 µM. It also gave a GI50 [16] of 10.1 µM, a TGI [16] of 25 µM and a GI50 [17] of 16.4 µM. The TGI [17] was 34.5 µM, the GI50 [18] was 28.3 µM and the TGI [18] was 84.6 µM. The GI50 [19] was 12.6 µM, the TGI [19] was 26.6 µM and the GI50 [20] was 6.15 µM. For the same molecule, the TGI [20] was 26.6 µM, the GI50 [21] was 13.1 µM and the TGI [21] was 37.2 µM. The GI50 [22] was 16 µM, the TGI [22] was 54.2 µM and the GI50 [23] was 3.35 µM. For the same molecule, the TGI [23] was 13.6 µM, the GI50 [24] was 16.2 µM and the TGI [24] was 39.2 µM. The GI50 [25] was 7.87 µM, the TGI [25] was 29.1 µM and the GI50 [26] was 26 µM. The TGI [26] was 65.3 µM, the GI50 [27] was 10 µM and the TGI [27] was 36 µM. For the same molecule, the GI50 [28] was 16.6 µM, the TGI [28] was 31.6 µM and the GI50 [29] was 17.6 µM. For the same molecule, the TGI [29] was 53.4 µM, the GI50 [30] was 11 µM and the TGI [30] was 37.3 µM. It also gave a GI50 [31] of 3.05 µM, a TGI [31] of 11.9 µM and a GI50 [32] of 3.86 µM. For the same molecule, the TGI [32] was 14.9 µM, the GI50 [33] was 4.73 µM and the TGI [33] was 29.2 µM. The GI50 [34] was 7.51 µM, the TGI [34] was 39.1 µM and the GI50 [35] was 5.81 µM. It also gave a TGI [35] of 28 µM, a GI50 [36] of 16.3 µM and a TGI [36] of 40.8 µM. For the same molecule, the GI50 [37] was 4.23 µM, the TGI [37] was > 100 µM and the GI50 [38] was 12.4 µM. For the same molecule, the TGI [38] was 27.2 µM, the GI50 [39] was 14.5 µM and the TGI [39] was 88.5 µM. The GI50 [40] was 6.33 µM, the TGI [40] was 32.4 µM and the GI50 [41] was 1.41 µM. The TGI [41] was 13.2 µM, the GI50 [42] was 6.1 µM and the TGI [42] was 22.5 µM. It also gave a GI50 [43] of 6.3 µM, a TGI [43] of 21.4 µM and a GI50 [44] of 21.9 µM. It also gave a TGI [44] of 43.2 µM, a GI50 [45] of 10.6 µM and a TGI [45] of 25.9 µM. It also gave a GI50 [46] of 3.57 µM, a TGI [46] of 18.6 µM and a GI50 [47] of 7.01 µM. For the same molecule, the TGI [47] was 24.1 µM, the GI50 [48] was 7.43 µM and the TGI [48] was 22.6 µM. For the same molecule, the GI50 [49] was 5.74 µM, the TGI [49] was 20.4 µM and the GI50 [50] was 6.73 µM. The TGI [50] was 25.8 µM, the GI50 [51] was 8.92 µM and the TGI [51] was 25.5 µM. The GI50 [52] was 5.47 µM, the TGI [52] was 19.5 µM and the GI50 [53] was 14.7 µM. For the same molecule, the TGI [53] was 30.7 µM, the GI50 [54] was 4.65 µM and the TGI [54] was 46 µM. For the same molecule, the GI50 [55] was 19.9 µM, the TGI [55] was 58.7 µM and the GI50 [56] was 2.35 µM. It also gave a TGI [56] of 9.16 µM, a GI50 [57] of 3.13 µM and a TGI [57] of 13.1 µM. For the same molecule, the GI50 [58] was 12.2 µM and the TGI [58] was 26.5 µM.

`CN(C)C/C=C/C(=O)Nc1cc2c(Nc3cccc(Cl)c3F)ncnc2cc1OCCOC(F)F` showed a GI50 [1] of 1.08 µM, a GI50 [2] of 0.566 µM and a TGI [2] of 2.71 µM. The GI50 [3] was 2.82 µM, the TGI [3] was 13.5 µM and the GI50 [4] was 1.42 µM. The TGI [4] was 6.18 µM, the GI50 [5] was 1.5 µM and the TGI [5] was 11.6 µM. For the same molecule, the GI50 [6] was 2.83 µM, the TGI [6] was 15.7 µM and the GI50 [7] was 1.5 µM. For the same molecule, the TGI [7] was 5.59 µM, the GI50 [8] was 2.38 µM and the TGI [8] was 13.6 µM. For the same molecule, the GI50 [9] was < 0.0187 µM, the TGI [9] was 6.14 µM and the GI50 [10] was 1.44 µM. The TGI [10] was 9.76 µM, the GI50 [11] was 3.11 µM and the TGI [11] was 13.5 µM. For the same molecule, the GI50 [12] was 0.371 µM, the TGI [12] was 15.1 µM and the TGI [13] was 6.1 µM. The GI50 [14] was 2.07 µM, the TGI [14] was 10.2 µM and the GI50 [15] was 0.317 µM. It also gave a TGI [15] of 10.7 µM, a GI50 [16] of 2.39 µM and a TGI [16] of 12.1 µM. The GI50 [17] was 1.68 µM, the TGI [17] was 7.28 µM and the GI50 [18] was 2.82 µM. For the same molecule, the TGI [18] was 15.6 µM, the GI50 [19] was 2.46 µM and the TGI [19] was 7.87 µM. For the same molecule, the GI50 [20] was 3.59 µM, the TGI [20] was 15.5 µM and the GI50 [21] was 1.53 µM. The TGI [21] was 5.27 µM, the GI50 [22] was 1.46 µM and the TGI [22] was 7.02 µM. For the same molecule, the GI50 [23] was 1.62 µM, the TGI [23] was 7.09 µM and the GI50 [24] was < 0.01 µM. It also gave a TGI [24] of 1.3 µM, a GI50 [25] of 0.343 µM and a TGI [25] of 4 µM. The GI50 [26] was 1.99 µM, the TGI [26] was 11.5 µM and the GI50 [27] was 1.94 µM. The TGI [27] was 6.27 µM, the GI50 [28] was 0.494 µM and the TGI [28] was 3.79 µM. It also gave a GI50 [29] of 0.695 µM, a TGI [29] of 9.77 µM and a GI50 [30] of 2.22 µM. The TGI [30] was 11.2 µM, the GI50 [31] was 1.18 µM and the TGI [31] was 5.22 µM. It also gave a GI50 [32] of 0.771 µM, a TGI [32] of 7.74 µM and a GI50 [33] of 1.97 µM. The TGI [33] was 13.3 µM, the GI50 [34] was 1.24 µM and the TGI [34] was 12.7 µM. For the same molecule, the GI50 [35] was 1.11 µM, the TGI [35] was 12.4 µM and the GI50 [36] was < 0.01 µM. The TGI [36] was 1.65 µM, the GI50 [37] was 0.939 µM and the TGI [37] was 11.6 µM. It also gave a GI50 [38] of 2.02 µM, a TGI [38] of 9.57 µM and a GI50 [39] of 3.08 µM. For the same molecule, the TGI [39] was 14.3 µM, the GI50 [40] was 1.69 µM and the TGI [40] was 6.35 µM. It also gave a GI50 [41] of 0.205 µM, a TGI [41] of 2.05 µM and a GI50 [42] of 2.05 µM. It also gave a TGI [42] of 11.6 µM, a GI50 [43] of 3.11 µM and a TGI [43] of 15.3 µM. It also gave a GI50 [44] of 0.423 µM, a TGI [44] of 2.22 µM and a GI50 [45] of 0.317 µM. It also gave a TGI [45] of 7.15 µM, a GI50 [46] of 0.0376 µM and a TGI [46] of 1.11 µM. It also gave a GI50 [47] of 1.87 µM, a TGI [47] of 11 µM and a GI50 [48] of 2.1 µM. For the same molecule, the TGI [48] was 10.9 µM, the GI50 [49] was < 0.0142 µM and the TGI [49] was 1.07 µM. The GI50 [50] was 1.31 µM, the TGI [50] was 10.6 µM and the GI50 [51] was < 0.01 µM. The TGI [51] was 0.275 µM, the GI50 [52] was < 0.01 µM and the TGI [52] was 10.7 µM. For the same molecule, the GI50 [53] was 1.09 µM, the TGI [53] was 7.78 µM and the GI50 [54] was 1.49 µM. It also gave a TGI [54] of 12 µM, a GI50 [55] of 1.64 µM and a TGI [55] of 6.47 µM. It also gave a GI50 [56] of 1.71 µM, a TGI [56] of 7.23 µM and a GI50 [57] of 0.0289 µM. The TGI [57] was 2.04 µM, the GI50 [58] was 1.86 µM and the TGI [58] was 11.1 µM.
